The text below walks through data of US9856321B2, “Anti-DR5 antibodies, polynucleotides and methods” (Daiichi Sankyo Company, Limited, priority 2010, dated 2018).

For test [1], the system named is human colon cancer cell line DLD-1. Description: Antitumor activity in nude mice implanted with DLD-1 (in combination with CPT-11). The class given is in vivo. To be noted: day 55; cB273 10 mg/kg ip day 35; CPT-11 80 mg/kg ip days 35, 40, 43. The procedure: CPT-11 was intraperitoneally administered at a dose of 80 mg/kg on days 35, 40, and 43 after the implantation (n=10).

The test system of test [2] is human colon cancer cell line HCT-15. Nature of the test: Antitumor activity in nude mice implanted with HCT-15 (in combination with CPT-11). The class given is in vivo. As to conditions: day 31; cB273 10 mg/kg tail vein day 7; CPT-11 80 mg/kg ip days 7, 10, 14. The procedure:
CPT-11 was intraperitoneally administered at a dose of 80 mg/kg on days 7, 10, and 14 after the implantation (n=10).

Test [3] has as its system human colon cancer cell line HCT-116. Description: Antitumor activity in nude mice implanted with HCT-116 (in combination with CPT-11). The class given is in vivo. To be noted: day 28; cB273 10 mg/kg tail vein day 7; CPT-11 65 mg/kg ip days 7, 10, 14. The method, then: CPT-11 was intraperitoneally administered at a dose of 65 mg/kg on days 7, 10, and 14 after the implantation (n=10).

Test [4] concerns human non-small cell lung cancer cell line NCI-H1975. As to conditions: day 32; antibody 3 mg/kg tail vein days 11, 18, 25; paclitaxel 6.25 mg/kg tail vein days 11-14.
Protocol: The major axis and the minor axis of the implanted tumor were measured twice a week using an electronic digital caliper (manufactured by Mitutoyo Corporation), and the tumor volume was calculated according to the following calculation formula. Tumor volume (mm^3)=1/2×(Minor axis)^2 (mm)×(Major axis)^2 (mm)
3×10^6 cells of a human non-small cell lung cancer cell line NCI-H1975 (purchased from ATCC) were implanted subcutaneously in the axillary region of nude mice. […] Paclitaxel was administered to tumor-bearing mice through the tail vein on days 11, 12, 13, and 14 after the implantation at a dose of 6.25 mg/kg. The experiment was carried out at n=6. In the same manner as described above, the major axis and the minor axis of the implanted tumor were measured, and the tumor volume was calculated.
Test [5] has as its system human melanoma cell line A375. Nature of the test: Antitumor activity in nude mice implanted with A375 (in combination with vinblastine). The class given is in vivo. As to conditions: day 46; cB273 10 mg/kg tail vein days 10, 17, 24; vinblastine 10 mg/kg tail vein day 10.
Test [6] deals with human colon cancer cell line HCT-15. Nature of the test: Antitumor activity in combination with 5-FU in nude mice implanted with HCT-15, comparison with conatumumab. In kind it is in vivo. To be noted: day 28; antibody 3 mg/kg tail vein days 7, 14, 21; 5-FU 160 mg/kg tail vein day 7.
Test [7] has the same test system. Nature of the test: Comparison of antitumor activity in nude mice implanted with HCT-15 between cB273 and conatumumab. In kind it is in vivo. As to conditions: day 30 after the implantation.
Protocol: 1×10^7 cells of a human colon cancer cell line HCT-15 (purchased from ATCC) were implanted subcutaneously in the axillary region of nude mice. […] In the same manner as described above, the major axis and the minor axis of the implanted tumor were measured, and the tumor volume was calculated.
The test system of test [8] is human lung cancer cell line NCI-H1975. Description: Comparison of antitumor activity in nude mice implanted with NCI-H1975 between cB273 and conatumumab. The class given is in vivo. To be noted: day 32 after the implantation.
Protocol: 3×10^6 cells of a human lung cancer cell line NCI-H1975 (purchased from ATCC) were implanted subcutaneously in the axillary region of nude mice. […] In the same manner as described above, the major axis and the minor axis of the implanted tumor were measured, and the tumor volume was calculated.
For test [9], the system named is human T-lymphoma cell line Jurkat. Nature of the test: In vitro cytocidal activity of mouse antibody B273, Jurkat. The class given is cell-based. As to conditions: 10,000 to 0.01 ng/ml with goat anti-mouse IgG Fc, 24 hours. The procedure:
(§1) Each of a human T-lymphoma cell line Jurkat and a human glioblastoma cell line U-87MG was prepared at 4.4×10^4 cells/ml in RPMI 1640 medium containing 10% FBS or MEM (Minimum Essential Medium) medium containing 10% FBS and added to a white clear bottom 96-well microplate (manufactured by Corning Incorporated) at […], and cultured overnight under the conditions of 37° C. and 5% CO2. The mouse B273 antibody or the mouse IgG1 antibody (manufactured by R&D Systems, Inc.) was mixed with the same concentration of AffiniPure goat anti-mouse IgG Fc specific (manufactured by Jackson ImmunoResearch Laboratories, Inc., #115-005-071), and the resulting mixture was added at 5 μl/well such that the final concentration of the mouse B273 antibody or the mouse IgG1 antibody was 10,000 to 0.01 ng/ml, and the cells were cultured under the conditions of 37° C. and 5% CO2 for 24 hours. The amount of ATP derived from viable cells in each well was measured by a luminometer (manufactured by Perkin Elmer, Inc.) using a CellTiter-Glo® luminescent cell viability assay kit (manufactured by Promega Corporation, #G7571) according to the attached protocol. The cytocidal activity was evaluated by taking the value obtained from the well to which the medium was added in place of the antibody solution as 100% (FIG. 1). In each graph, the cell viability is expressed as a mean±standard deviation (n=3).

Test [10] concerns human glioblastoma cell line U-87MG. Nature of the test: In vitro cytocidal activity of mouse antibody B273, U-87MG. The class given is cell-based. To be noted: 10,000 to 0.01 ng/ml with goat anti-mouse IgG Fc, 24 hours. The procedure:
as §1

Take `CCc1c2c(nc3ccc(OC(=O)N4CCC(N5CCCCC5)CC4)cc13)-c1cc3c(c(=O)n1C2)COC(=O)[C@]3(O)CC` [CPT-11, irinotecan (CPT-11), reference compound]: the “tumor growth inhibitory rate” value is given as 29.5% in test [1], 83.5% in test [2] and 89.8% in [3].

Regarding `CC(=O)O[C@H]1C(=O)[C@@]2(C)[C@H]([C@H](OC(=O)c3ccccc3)[C@]3(O)C[C@H](OC(=O)[C@H](O)[C@@H](NC(=O)c4ccccc4)c4ccccc4)C(C)=C1C3(C)C)[C@]1(OC(C)=O)CO[C@@H]1C[C@@H]2O` [paclitaxel], the “tumor growth inhibitory rate” value in [4] came out at 49%.

As for `CC[C@]1(O)C[C@@H]2CN(CCc3c([nH]c4ccccc34)[C@@](C(=O)OC)(c3cc4c(cc3OC)N(C)[C@H]3[C@@](O)(C(=O)OC)[C@H](OC(C)=O)[C@]5(CC)C=CCN6CC[C@]43[C@@H]65)C2)C1` [vinblastine, reference compound], in [5], the “tumor growth inhibitory rate” value came to 43.6%.

As to `O=c1[nH]cc(F)c(=O)[nH]1` [5-FU], the “tumor growth inhibitory rate” value in test [6] worked out at 54%.

As for conatumumab [reference compound], the “tumor growth inhibitory rate” value in [7] (3 mg/kg tail vein days 6, 13, 20) was 27.4%; in test [7] (10 mg/kg tail vein days 6, 13, 20), 26.9%; in test [7] (30 mg/kg tail vein days 6, 13, 20), 20.3%; in [8] (3 mg/kg tail vein days 12, 19, 26) it was 13.5%; in test [8] (10 mg/kg tail vein days 12, 19, 26), 12.6%; in test [6], 27%. In addition, the “tumor growth inhibitory rate” value in test [4] worked out at 40%.

B1: B273: mouse anti-human DR5 monoclonal antibody from hybridoma B273; heavy chain SEQ ID NO: 8, light chain SEQ ID NO: 10; IgG1, κ (antibody, listed as Mus musculus)
heavy: MGWSCIFLFLLSVTVGVFSEVQLQQSGPELVKPGASVKISCKASGYSFIGYFMNWMKQSHGKSLEWIGRFNPYNGDTFYNQKFKGKATLTVDKSSTTAHMELLSLTSEDSAVYFCGRSAYYFDSGGYFDYWGQGTTLTVSSAKTTPPSVYPLAPGSAAQTNSMVTLGCLVKGYFPEPVTVTWNSGSLSSGVHTFPAVLQSDLYTLSSSVTVPSSTWPSETVTCNVAHPASSTKVDKKIVPRDCGCKPCICTVPEVSSVFIFPPKPKDVLTITLTPKVTCVVVDISKDDPEVQFSWFVDDVEVHTAQTQPREEQFNSTFRSVSELPIMHQDWLNGKEFKCRVNSAAFPAPIEKTISKTKGRPKAPQVYTIPPPKEQMAKDKVSLTCMITDFFPEDITVEWQWNGQPAENYKNTQPIMDTDGSYFVYSKLNVQKSNWEAGNTFTCSVLHEGLHNHHTEKSLSHSPGK
light: MKLPVRLLVLMFWIPASSSDVVMTQTPLSLPVSLGDQASISCRSSQSLVHSNGNTYLHWYLQKPGQSPKLLIYKVSNRFSGVPDRFSGSGSGTDFTLKISRVEAEDLGIYFCSQSTHVPWTFGGGTKLEIKRADAAPTVSIFPPSSEQLTSGGASVVCFLNNFYPKDINVKWKIDGSERQNGVLNSWTDQDSKDSTYSMSSTLTLTKDEYERHNSYTCEATHKTSTSPIVKSFNRNEC
Regarding B1, the “cytocidal effect (cell viability, ATP)” value in test [9] and in test [10] was “exhibits a cytocidal effect on both cell lines in an antibody concentration-dependent manner” in each case.
